This is an account of results in US20240132431A1, “METHOD FOR ALKYLATING ACIDIC FUNCTIONAL GROUP” (Chugai Seiyaku Kabushiki Kaisha, priority 2021, published 2024).

The test has as its target T1, Bcl-2 protein (Recombinant Human Bcl-2 Protein) (Homo sapiens, UniProt P10415).
T1 construct: purchased Novus NBP2-34889
Put plainly: Binding evaluation of mixture library compounds to Bcl-2 using AS-MS (affinity selection mass spectrometry). To be noted: for ASMS ratio (%) n = 1: replicate n = 1; for ASMS ratio (%) n = 1 / ASMS ratio (%) n = 2: ASMS Ratio(%)=(A−C)/B×100; for ASMS ratio (%) n = 2: replicate n = 2. The method, boiled down:
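Pooled library of ~1200 compounds ([…] each, final) incubated with recombinant human Bcl-2 (20 μM final) in Tris-HCl pH 7.4, NaCl, Tween-20, DTT buffer, dark, 23° C., 1 h. Bound fraction recovered by SEC spin column, organic extraction, reversed-phase LC/MS. ASMS Ratio (%) = (A−C)/B×100 versus protein-free standard and SEC blank.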

[1] abbreviates: AS-MS on the mixture of 1200 library compounds.
[2] abbreviates: AS-MS, mixture of 1200 compounds, Bcl-2.

T1 sequence (P10415 whole entry): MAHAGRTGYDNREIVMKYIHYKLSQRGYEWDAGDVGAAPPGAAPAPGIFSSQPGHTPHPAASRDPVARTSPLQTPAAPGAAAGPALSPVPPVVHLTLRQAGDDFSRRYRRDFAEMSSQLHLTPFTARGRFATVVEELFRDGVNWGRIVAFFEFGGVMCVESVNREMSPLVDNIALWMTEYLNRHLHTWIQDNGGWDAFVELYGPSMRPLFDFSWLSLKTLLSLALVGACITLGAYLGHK

`CCOc1cncc(-c2cc(CN3CCN(c4ccc(C(=O)NS(=O)(=O)c5ccc(NCCSc6ccccc6)c([N+](=O)[O-])c5)nn4)CC3)cc(OC(C)C)c2)c1` [B2Q084-01, 6-[4-[[3-(5-Ethoxypyridin-3-yl)-5-propan-2-yloxyphenyl]methyl]piperazin-1-yl]-N-[3-nitro-4-(2-phenylsulfanylethylamino)phenyl]sulfonylpyridazine-3-carboxamide]: under “AS-MS, mixture library, Bcl-2”, the “ASMS ratio (%) n = 1” value is given as 12.6% and the “ASMS ratio (%) n = 2” value was −4.9%. `CCOc1cncc(-c2ccc(C(=O)N3CCN(c4ccc(C(=O)N(C)CC56CC7CC(CC(C7)C5)C6)cc4)CC3)c3ccccc23)c1` [B3A036-01, N-(1-Adamantylmethyl)-4-[4-[4-(5-ethoxypyridin-3-yl)naphthalene-1-carbonyl]piperazin-1-yl]-N-methylbenzamide]: under setting [1], the “ASMS ratio (%) n = 1” value is given as 2.8% and the “ASMS ratio (%) n = 2” value is recorded as −3.3%.

Take “6-[4-[[3-(5-Ethoxypyridin-3-yl)-5-propan-2-yloxyphenyl]methyl]piperazin-1-yl]-N-propylpyridazine-3-carboxamide [B1M066-01]”: under setting [2], the “ASMS ratio (%) n = 1” value is given as 0.0% and the “ASMS ratio (%) n = 2” value came to 4.4%.

Consider `CCOc1cccc(-c2cc(OC)c(CN3CCN(c4ccc(C(=O)NS(=O)(=O)CCC(F)(F)F)cc4)CC3)c(OC)c2)c1` [B2N059-01, 4-[4-[[4-(3-Ethoxyphenyl)-2,6-dimethoxyphenyl]methyl]piperazin-1-yl]-N-(3,3,3-trifluoropropylsulfonyl)benzamide], for which the “ASMS ratio (%)” value is, setting by setting: (n = 1) 0.0%; (n = 2) 0.0%. Consider `CCOc1cccc(-c2ccc(C(=O)N3CCN(c4ccc(C(=O)N(CC)CC)nn4)CC3)cc2C)c1` [B4J003-01, 6-[4-[4-(3-Ethoxyphenyl)-3-methylbenzoyl]piperazin-1-yl]-N,N-diethylpyridazine-3-carboxamide], for which, under setting [1], the “ASMS ratio (%) n = 1” value worked out at 0.0% and the “ASMS ratio (%) n = 2” value is given as 0.0%.

Regarding `CCOc1cncc(-c2cc(C(=O)N3CCN(c4ccc(C(=O)Nc5ccc(OC)cc5)nn4)CC3)cc(C(C)(C)C)c2)c1` [B1O016-01, 6-[4-[3-tert-Butyl-5-(5-ethoxypyridin-3-yl)benzoyl]piperazin-1-yl]-N-(4-methoxyphenyl)pyridazine-3-carboxamide], under setting [1], the “ASMS ratio (%) n = 1” value turned out to be 6.6% and the “ASMS ratio (%) n = 2” value is 0.7%. Take `CCOc1cncc(C#Cc2ccccc2CN2CCN(c3ccc(C(=O)NCC45CC6CC(CC(C6)C4)C5)nn3)CC2)c1` [B1A096-01, N-(1-Adamantylmethyl)-6-[4-[[2-[2-(5-ethoxypyridin-3-yl)ethynyl]phenyl]methyl]piperazin-1-yl]pyridazine-3-carboxamide]: under setting [2], the “ASMS ratio (%) n = 1” value is given as 0.0% and the “ASMS ratio (%) n = 2” value stood at 7.4%. As for `CCOc1cncc(-c2cc(CN3CCN(c4ccc(C(=O)NCC(F)(F)F)nn4)CC3)cc(OC(C)C)c2)c1` [B1K084-01, 6-[4-[[3-(5-Ethoxypyridin-3-yl)-5-propan-2-yloxyphenyl]methyl]piperazin-1-yl]-N-(2,2,2-trifluoroethyl)pyridazine-3-carboxamide], under setting [2], the “ASMS ratio (%) n = 1” value was determined as 0.0% and the “ASMS ratio (%) n = 2” value was found to be 0.0%. Regarding `CCOc1cncc(-c2csc(CN3CCN(c4ccc(C(=O)NS(=O)(=O)C(C)(C)C)nn4)CC3)c2)c1` [B2L094-01, N-tert-Butylsulfonyl-6-[4-[[4-(5-ethoxypyridin-3-yl)thiophen-2-yl]methyl]piperazin-1-yl]pyridazine-3-carboxamide], the “ASMS ratio (%)” value worked out at 0.2% (n = 1) and 1.8% (n = 2). For the molecule `CCOc1cncc(-c2ccc(C(=O)N3CCN(c4ccc(C(=O)NS(=O)(=O)c5ccc(NCCSc6ccccc6)c([N+](=O)[O-])c5)cc4)CC3)cc2C)c1` [B2Q026-01, 4-[4-[4-(5-Ethoxypyridin-3-yl)-3-methylbenzoyl]piperazin-1-yl]-N-[3-nitro-4-(2-phenylsulfanylethylamino)phenyl]sulfonylbenzamide], for the setting “AS-MS, mixture library, Bcl-2”, the “ASMS ratio (%) n = 1” value was found to be 4.4% and the “ASMS ratio (%) n = 2” value is on record as 0.4%.

`CCOc1cncc(-c2ccc(C(C)N3CCN(c4ccc(C(=O)N(CC)CC)cc4)CC3)c(F)c2)c1` (centres unmarked) [B4J100-01, 4-[4-[1-[4-(5-Ethoxypyridin-3-yl)-2-fluorophenyl]ethyl]piperazin-1-yl]-N,N-diethylbenzamide]: where the note is “AS-MS, mixture library, Bcl-2”, the “ASMS ratio (%) n = 1” value amounted to 0.0% and the “ASMS ratio (%) n = 2” value came to 0.0%.

Turning to `CCOc1cccc(-c2ccccc2CN2CCN(c3ccc(C(=O)NCC(F)(F)F)nn3)CC2)c1` [B1K071-01, 6-[4-[[2-(3-Ethoxyphenyl)phenyl]methyl]piperazin-1-yl]-N-(2,2,2-trifluoroethyl)pyridazine-3-carboxamide], under setting [2], the “ASMS ratio (%) n = 1” value is 1.6% and the “ASMS ratio (%) n = 2” value was −0.9%.

Consider `CCOc1cccc(-c2csc(C(=O)N3CCN(c4ccc(C(=O)NS(=O)(=O)CC56CC7CC(CC(C7)C5)C6)cc4)CC3)c2)c1` [B2A023-01, N-(1-Adamantylmethylsulfonyl)-4-[4-[4-(3-ethoxyphenyl)thiophene-2-carbonyl]piperazin-1-yl]benzamide], for which, where the note is “AS-MS, mixture library, Bcl-2”, the “ASMS ratio (%) n = 1” value was 0.0% and the “ASMS ratio (%) n = 2” value is recorded as 0.0%. Consider `CCOc1cccc(-c2ccc(C(=O)N3CCN(c4ccc(C(=O)NS(=O)(=O)CC56CC7CC(CC(C7)C5)C6)cc4)CC3)cc2F)c1` [B2A027-01, N-(1-Adamantylmethylsulfonyl)-4-[4-[4-(3-ethoxyphenyl)-3-fluorobenzoyl]piperazin-1-yl]benzamide], for which, for the setting “AS-MS, mixture library, Bcl-2”, the “ASMS ratio (%) n = 1” value worked out at 5.5% and the “ASMS ratio (%) n = 2” value is reported as −3.9%. Consider `CCOc1cccc(-c2csc(C(=O)N3CCN(c4ccc(C(=O)N(C)CC56CC7CC(CC(C7)C5)C6)nn4)CC3)c2)c1` [B3A001-01, N-(1-Adamantylmethyl)-6-[4-[4-(3-ethoxyphenyl)thiophene-2-carbonyl]piperazin-1-yl]-N-methylpyridazine-3-carboxamide], for which, under setting [1], the “ASMS ratio (%) n = 1” value is on record as 0.0% and the “ASMS ratio (%) n = 2” value was −8.4%. In the case of `CCOc1cncc(-c2ccc(C(=O)N3CCN(c4ccc(C(=O)NS(C)(=O)=O)cc4)CC3)cc2C)c1` [B2I026-01, 4-[4-[4-(5-Ethoxypyridin-3-yl)-3-methylbenzoyl]piperazin-1-yl]-N-methylsulfonylbenzamide], where the note is “AS-MS, mixture library, Bcl-2”, the “ASMS ratio (%) n = 1” value is reported as −2.6% and the “ASMS ratio (%) n = 2” value is reported as −0.2%. Consider `CCOc1cncc(-c2ccc(C(C)N3CCN(c4ccc(C(=O)NCC56CC7CC(CC(C7)C5)C6)cc4)CC3)c(F)c2)c1` (centres unmarked) [B1A100-01, N-(1-Adamantylmethyl)-4-[4-[1-[4-(5-ethoxypyridin-3-yl)-2-fluorophenyl]ethyl]piperazin-1-yl]benzamide], for which, under setting [2], the “ASMS ratio (%) n = 1” value is 6.4% and the “ASMS ratio (%) n = 2” value was 2.3%. For the molecule `CCOc1cccc(-c2cc(C(=O)N3CCN(c4ccc(C(=O)NCC(F)(F)F)nn4)CC3)cc(C(C)(C)C)c2)c1` [B1K015-01, 6-[4-[3-tert-Butyl-5-(3-ethoxyphenyl)benzoyl]piperazin-1-yl]-N-(2,2,2-trifluoroethyl)pyridazine-3-carboxamide], under setting [2], the “ASMS ratio (%) n = 1” value was 2.9% and the “ASMS ratio (%) n = 2” value was −1.8%. On to `CCOc1cncc(-c2cc(CN3CCN(c4ccc(C(=O)NS(=O)(=O)CC56CC7CC(CC(C7)C5)C6)cc4)CC3)cc(OC(F)(F)F)c2)c1` [B2A064-01, N-(1-Adamantylmethylsulfonyl)-4-[4-[[3-(5-ethoxypyridin-3-yl)-5-(trifluoromethoxy)phenyl]methyl]piperazin-1-yl]benzamide], for which, under “AS-MS, mixture library, Bcl-2”, the “ASMS ratio (%) n = 1” value is reported as 0.0% and the “ASMS ratio (%) n = 2” value is given as −0.3%.

`CCOc1cncc(-c2cc(CN3CCN(c4ccc(C(=O)NS(=O)(=O)c5ccc(NCCSc6ccccc6)c([N+](=O)[O-])c5)nn4)CC3)cc(C(F)(F)F)c2)c1` [B2Q088-01, 6-[4-[[3-(5-Ethoxypyridin-3-yl)-5-(trifluoromethyl)phenyl]methyl]piperazin-1-yl]-N-[3-nitro-4-(2-phenylsulfanylethylamino)phenyl]sulfonylpyridazine-3-carboxamide]: where the note is “AS-MS, mixture library, Bcl-2”, the “ASMS ratio (%) n = 1” value came out at 13.8% and the “ASMS ratio (%) n = 2” value is listed as 9.1%. For the molecule `CCOc1cncc(-c2ccc(C(=O)N3CCN(c4ccc(C(=O)NS(=O)(=O)CC56CC7CC(CC(C7)C5)C6)nn4)CC3)cc2C)c1` [B2A004-01, N-(1-Adamantylmethylsulfonyl)-6-[4-[4-(5-ethoxypyridin-3-yl)-3-methylbenzoyl]piperazin-1-yl]pyridazine-3-carboxamide], where the note is “AS-MS, mixture library, Bcl-2”, the “ASMS ratio (%) n = 1” value came out at 0.0% and the “ASMS ratio (%) n = 2” value is 0.0%. Take `CCOc1cncc(-c2cnn(-c3cc(C(=O)N4CCN(c5ccc(C(=O)NS(C)(=O)=O)cc5)CC4)cc(C(F)(F)F)c3)c2)c1` [B2I044-01, 4-[4-[3-[4-(5-Ethoxypyridin-3-yl)pyrazol-1-yl]-5-(trifluoromethyl)benzoyl]piperazin-1-yl]-N-methylsulfonylbenzamide]: the “ASMS ratio (%)” value runs as follows: (n = 1) 0.0%; (n = 2) 0.0%.

For the molecule “4-[4-[3-(5-Ethoxypyridin-3-yl)-5-(trifluoromethyl)benzoyl]piperazin-1-yl]-N-propylbenzamide [B1M008-01]”, under setting [2], the “ASMS ratio (%) n = 2” value was found to be 0.0%. As to `CCOc1cccc(-c2ccc(CN3CCN(c4ccc(C(=O)NCC56CC7CC(CC(C7)C5)C6)cc4)CC3)c(OC)c2)c1` [B1A053-01, N-(1-Adamantylmethyl)-4-[4-[[4-(3-ethoxyphenyl)-2-methoxyphenyl]methyl]piperazin-1-yl]benzamide], under setting [2], the “ASMS ratio (%) n = 1” value is given as 13.2% and the “ASMS ratio (%) n = 2” value came out at 4.8%.
